Values joined by “and” are separate entries in the source; they are usually repeats but may differ in a detail not shown here. Equal entries are not always repeated.
Columns and labels:
[1] = tested on: IgG production by ARH-77 cells; test: IgG production by ARH-77 cells, IgG ELISA; format: cell-based, human; conditions: XPP 2.5, 5, 10, 20, and 40 μg/mL
Experimental: ARH-77, a human IgG-producing myeloma cell line, was purchased from ATCC (American Type Culture Collection; Manassas, VA). The culture media contains RPMI 1640 medium supplemented, 10% FBS, 1 mM sodium pyruvate, 1×10^-5 M β-ME and 0.5% penicillin-streptomycin. Cells were cultured at 37°C under 5% CO2. […] After 3 days, supernatants were harvested and IgG levels were determined using an ELISA Kit (Mabtech Inc, OH).

U266 cells [2] = test: Cell viability of U266 cells by trypan blue exclusion; format: cell-based, human; conditions: all concentrations tested (2.5-40 µg/mL)
Experimental: Cell viability was evaluated using a trypan blue exclusion as previously described ([31]). Briefly, a 10µL of cells suspension from each culture was mixed with equal volume of trypan blue dye. The mixture was loaded into a hemocytometer and cells were counted under a microscope. The percentage of viable cells was calculated as follows: Viable cells (%) = (total number of viable cells)/(total number of cells) × 100.

PN-allergic C3H/HeJ mice = test: Peanut-allergic mouse models (Model #1 systemic i.p. sensitization, early treatment; Model #2 oral sensitization, late treatment) with oral PN challenge; format: in vivo; conditions: for Time after stopping treatment at which protection from anaphylaxis persisted: model #1
U266 cells [3] = test: RT-PCR of candidate genes in XPP-treated U266 cells; format: cell-based, human
Experimental: RT-PCR analysis of genes related to Cell cycle, B cell differentiation, and IgE production was performed by QuantStudio 5 real-time PCR system (Thermo Fisher, Waltham, MA). For each PCR reaction, 12.5 μL maxima SYBR Green/ROX qPCR Master Mix 2x (Thermo Fisher, Waltham, MA) was mixed with 1.8 μL of 0.3 μM target primers and 300 ng of template DNA to make the total volume as 25 μL. The PCR procedure was set as […] 25°C for 5 min, 42°C for 60 min and 70°C for 15 min. GAPDH was used as the housekeeping gene. The Delta Ct values for each gene were calculated by normalizing the Ct values with the housekeeping gene. The relative fold change in mRNA expression between different groups was calculated and expressed as 2^−ΔΔCT. The primer sequence used are shown in Supplementary Table 1 .

[4] = tested on: splenocytes (SPCs) and mesenteric lymph node (MLN) cells; test: Cytokines in CPE-stimulated splenocyte and MLN cell cultures from treated mice (Model #2), ELISA; format: in vivo, C3H/HeJ mice; conditions: model #2, CPE stimulation, vs sham
Experimental: Mice were sacrificed at the end of each experiment. The splenocytes (SPCs) and mesenteric lymph node (MLN) cells of each mouse was collected as previously described ([37]). Cells (4 x10^6/well/mL) were cultured in 24 well plates in the presence or absence of CPE (200 µg/mL). After 72 hrs of incubation at 37°C under 5% CO2, supernatants were collected. Cytokine levels were measured using ELISA kits in triplicate according to the manufacturer’s instructions (BD Biosciences, San Jose, CA and R&D systems, Minneapolis, MN).

ARH-77 cells = test: Cell viability of ARH-77 cells by trypan blue exclusion; format: cell-based, human; conditions: XPP 2.5-40 μg/mL
Experimental: Cell viability was evaluated using the trypan blue exclusion assay. Briefly, 10µL of ARH-77 cells at each testing condition was mixed with 10 µL of trypan blue dye. The mixture was then loaded into a hemocytometer and the viable cells were counted under a microscope. The percentage of viable cells was calculated as follows: Viable cells (%) = (total number of viable cells) / (total number of cells) × 100.

IL-4 promoter = IL-4 promoter DNA methylation (CpG-393) in splenocytes of treated mice, bisulfite pyrosequencing; format: in vivo, C3H/HeJ mice; conditions: model #2, vs sham
From the text: Genomic DNA was isolated from mouse splenocytes collected from orally sensitized mouse model#2 using Qiagen mini DNA/RNA extraction kit (Qiagen, Valencia, CA). Isolated DNA was bisulfite-modified using an Epitect plus DNA Bisulfite kit (Qiagen) following the manufacturer’s instructions. Bisulfite converted DNA was then amplified with the IL-4 primers listed below by PCR. The PCR products were subsequently purified and pyrosequenced using sequencing primers on a Pyromark Q24 system (Qiagen) as described previously ([38]). Primers for IL-4; Fwd: […]; Rev-Biotin-[…]. Sequencing (CpG -393) […].

IgE+ B cells = test: Flow cytometry of IgE+ B cells in spleen and bone marrow of treated mice (Model #2); format: in vivo, C3H/HeJ mice; conditions: model #2, vs sham
Experimental: Single cell suspensions of spleen, bone marrow from two femurs and heparinized peripheral blood were isolated in AIM-V medium. Erythrocytes were lysed with red cell lysing buffer (Sigma-Aldrich, St. Louis, MO). For staining, cells were suspended in ice cold staining buffer (PBS including 0.5 mM EDTA, 0.05 mM Sodium Azide, 0.5% BSA). Surface staining was performed by incubating cells with unlabeled anti-IgE (to block membrane IgE), BV605 anti-B220, BV711-anti-CD3, anti-CD16/32 (Fc-block), all from BD Biosciences, CA). Live-dead discriminating dye (Live-Dead Aqua, Invitrogen, CA) was included. After incubation, cells were washed and suspended in fixation/permeabilization buffer for 15 mins. Cells were washed with permeabilization buffer and incubated with Fitc-anti IgE in permeabilization buffer for 30 mins in the dark on ice. After washing, cells were treated with Cytofix buffer for 15 mins for post-fixation and then washed 3 times with staining buffer and finally resuspended in 200 µL staining buffer for cell acquisition on LSRII flow cytometer (BD Bioscience, San Jose, CA). Flow cytometry analysis was performed using Flow Jo 5.4 software (Tree Star Inc., Ashland, Oregon) as follows. […] From live cell gate, all IgE+ (Fitc-IgE) cells were gated and subsequently analyzed for IgE+ B cells (Fitc-IgE +; BV605-B220+ cells).

[5] = model #1, 7 weeks after stopping therapy
[6] = orally sensitized mouse model #2

With O=C1c2ccccc2C(=O)c2c(O)cc(O)cc21 [XPP, xanthopurpurin] the “IgG production by ARH-77 cells” value [1] was “didn’t show significant inhibition”, the “Toxicity / cell viability of U266 cells (trypan blue)” value (U266 cells [2]) was “No toxicity was observed at any concentration tested” and the “Body temperatures after PN challenge” value (PN-allergic C3H/HeJ mice; both models, 30 minutes after challenge, p < 0.001 vs. Sham) was “normal body temperatures”. For the same compound, the “Reduction of PN-specific IgE levels at challenge vs. sham” value (PN-allergic C3H/HeJ mice; both models, oral XPP 400 µg/day) was > 80% and 75%, the “Plasma histamine levels after PN challenge” value (PN-allergic C3H/HeJ mice; both models, p < 0.001) was “essentially normal plasma histamine levels” and the “Symptom scores following PN challenge” value (PN-allergic C3H/HeJ mice; both models, score 0-5, p <0.001 vs. Sham) was 0. The “Time after stopping treatment at which protection from anaphylaxis persisted” value (PN-allergic C3H/HeJ mice) was 5 weeks, the “Body temperatures, sustained effect” value (PN-allergic C3H/HeJ mice; [5]) was “increased” and the “PN-specific IgE levels, sustained effect” value (PN-allergic C3H/HeJ mice; [5]) was “significantly reduced”. For the same compound, the “Symptom scores, sustained effect” value (PN-allergic C3H/HeJ mice; [5]) was “significantly reduced”, the “Time after stopping treatment at which protection from anaphylaxis persisted” value (PN-allergic C3H/HeJ mice; listed as xanthopurpurin) was 7 weeks and the “Fecal PN-specific IgA” value (PN-allergic C3H/HeJ mice; [6]) was “did not reduce”. The “Serum PN-specific IgG1” value (PN-allergic C3H/HeJ mice; [6]) was “did not reduce”, the “Serum PN-specific IgG2a” value (PN-allergic C3H/HeJ mice; [6]) was “did not reduce” and the CCND1 gene expression (U266 cells [3]; XPP 20 μg/mL, p < 0.001) was “significantly reduced”. The IL6R gene expression (U266 cells [3]; XPP 20 μg/mL, p < 0.001) was “significantly reduced”, the SCD1 gene expression (U266 cells [3]; XPP 20 μg/mL, p < 0.001) was “significantly reduced” and the DUSP4 gene expression (U266 cells [3]; XPP 20 μg/mL, p < 0.01) was “significantly increased”. The PTPRC gene expression (U266 cells [3]; XPP 20 μg/mL, p < 0.01) was “significantly increased”, the ETS1 gene expression (U266 cells [3]; increasing XPP concentration) was “upregulation trend with the increasing concentration of XPP, but no significant value was observed” and the “IL-4 level in MLN cultures” value ([4]; 72 hrs) was “significantly inhibited IL-4 level”. The “IL-4 level in splenocyte cultures” value ([4]; 72 hrs) was “significantly inhibited IL-4 level”, the “IFN-γ production in MLN cultures” value [4] was “no significant differences” and the “IFN-γ production in SPC cultures” value [4] was “no significant differences”. For the same compound, the “IL-10 production in MLN cultures” value [4] was “no significant differences”, the “IL-10 production in SPC cultures” value [4] was “no significant differences” and the “Toxicity / cell viability of ARH-77 cells” value (ARH-77 cells) was “No toxicity was observed”. The “Percentages of CpG methylation for CpG-393 of IL-4 promoter” value (IL-4 promoter) was “showed an increase”, the “Percentage of IgE+ B cells (over all IgE+ cells) in bone marrow” value (IgE+ B cells; p < 0.001) was “significantly reduced” and the “Percentage of IgE+ B cells (over all IgE+ cells) in spleen” value (IgE+ B cells; p < 0.01) was “significantly reduced”.

From article PMC10876879, “Sustained silencing peanut allergy by xanthopurpurin is associated with suppression of peripheral and bone marrow IgE-producing B cell” (Frontiers in Immunology, 2024)
